Source: patent US12129312B2, “Peptide compound, application thereof and composition containing same” (priority 2017, dated 2024)
Numbered stars: 1 amine (or outer) side, 2 acyl side, 3 side chain; on linkers, the order of the positions; unused ones are H or OH. Square brackets hold non-standard residues; d marks the D form. Peptide text beside a SMILES is read from it. * marks the point of attachment. dTyr(3-F) = N[C@H](Cc1ccc(O)c(F)c1)C(=O)O; PEG8 = NCCOCCOCCOCCOCCOCCOCCOCCOCCC(=O)O; Gly(Nα-CH2CH2CONH2) = NC(=O)CCNCC(=O)O; Pro(4,4-F2) = O=C(O)[C@@H]1CC(F)(F)CN1; X4 = O=C([C@@H]1Cc2ccsc2CN1[*:1])[*:2]; 1Nal = N[C@@H](Cc1cccc2ccccc12)C(=O)O; 2Nal = N[C@@H](Cc1ccc2ccccc2c1)C(=O)O; dNMeY = CN[C@H](Cc1ccc(O)cc1)C(=O)O; Cyclohexylacetyl = O=C(CC1CCCCC1)*; Myristoyl = CCCCCCCCCCCCCC(=O)*; Tic = O=C(O)[C@@H]1Cc2ccccc2CN1; NMeL = CN[C@@H](CC(C)C)C(=O)O; X9 = O=C(c1ccc(O)c(O)c1O)*; NMeS = CN[C@@H](CO)C(=O)O; Pip = O=C(O)[C@@H]1CCCCN1; Thz = O=C(O)[C@@H]1CSCN1; βAla = NCCC(=O)O

System: not listed separately
Experiment: Plasma stability, mouse plasma
Assay type: in vitro ADME
Conditions: 37° C., 500 ng/mL, 0-4 hours, LC-MS/MS, "Very long" = no significant degradation found in the test (4 hours)
Procedure: 1. Preparation of 50 mM Phosphate Buffer (50 mM Sodium Phosphate and 70 mM NaCl):
5.750 g of Na2HPO4, 1.141 g of NaH2PO4 and 4.095 g of NaCl (Shanghai Titan) were weighed and dissolved in 1000 mL of ultrapure water and the pH was adjusted to 7.4. The prepared phosphate buffer was stored in the refrigerator at 4° C., valid for one week.
2. Preparation of Compound Stock Solution:
1) 5 mg/mL test compound: 5 mg of compound was weighed and dissolved in 1 mL of DMSO.
2) 20 mM control: 2.728 mg of nococaine was dissolved in 0.5 mL of DMSO. 3.878 mg of fenfluramide was dissolved in 0.5 mL of DMSO (Amresco).
3. Preparation of Experimental Plasma:
The frozen plasma (human: Shanghai ChemPartner, Rat, Mouse: Shanghai Xipuer-Beikai, Dog, Monkey: Suzhou Xishan Zhongke) was taken out from the −80° C. refrigerator, immediately placed in a 37° C. water bath, and thawn with gentle shaking. The thawed plasma was poured into a centrifuge tube, and centrifuged at 3000 rpm for 8 minutes. The supernatant was collected for the experiment. The pH of the plasma was measured with a pH meter (METTLER TOLEDO), and only the plasma with a pH between 7.4 and 8 was used for the experiment. The plasma was placed on an ice bath for later use.
4. Preparation of the Dosing Solution:
1) 125 μg/mL test compound solution: 5 μL of 5 mg/mL test compound (see step 2) was added to 195 μL DMSO; 500 μM control solution: 20 mM control stock solution (see step 2) was added to 195 μL DMSO.
2) 0.5% BSA phosphate buffer solution: 0.05 g of BSA was added to 10 mL of phosphate buffer (see step 1).
3) 5 μg/mL test compound dosing solution: 40 μL of 125 μg/mL test compound solution was added to 960 μL of 0.5% BSA phosphate buffer solution, shaken and mixed evenly, and the dosing solution was placed in a 37° C. water bath and preheated for 5 minutes.
20 μM control dosing solution: 40 μL of 500 μM control solution was added to 960 μL of 0.5% BSA phosphate buffer solution, shaken and mixed evenly, and the dosing solution was placed in a 37° C. water bath and preheated for 5 minutes.
5. 10 μL of 5 μg/mL test compound and 20 μM control solution were added to the wells of the 96-well plate set at different time points (0 minute, 1 hour, 2 hours and 4 hours). The number of duplicate samples was 3.
6. 500 μL of ACN (IS) containing 5% FA was added to the wells set at 0 minute. 90 μL of plasma was then added thereto, mixed evenly, sealed with the film and stored at 4° C. (the number of duplicates was 3).
7. 90 μL of plasma was added to the wells set at 1 hour, 2 hours and 4 hours (the number of replicates was 3), followed by timing (the final concentration of the test compound was 500 ng/mL, and that of the control was 2 μM).
9. All samples (0 minutes, 1 hour, 2 hours, and 4 hours) at different time points on the 96-well plate were placed on a shaker (IKA, MTS 2/4) and shaken at 600 rpm for 60 minutes. The samples were then centrifuged for 15 minutes on a centrifuge machine (Thermo Multifuge×3R) at 5594×g.
10. 150 μL of the supernatant was taken out from the centrifuged sample and sent to LC-MS/MS for analysis (conventional peptide LC-MS/MS analysis).

| Mouse plasma (T1/2 (h)) | SMILES |
| --- | --- |
| Very long | CN[C@H](Cc1ccc(O)cc1)C(=O)N[C@@H](Cc1ccccc1)C(=O)N(C)[C@@H](CC(C)C)C(=O)N1CSC[C@H]1C(=O)N[C@H](CO)C(=O)N[C@@H](CCC(N)=O)C(=O)N[C@@H](Cc1ccc2ccccc2c1)C(=O)N[C@H](C)C(=O)N1Cc2ccccc2C[C@H]1C(=O)N(C)[C@@H](CO)C(=O)O [YW-125, (D-NMe-Tyr)-Phe-(NMe-Leu)-Thz-(D-Ser)-Gln-2Nal-(D-Ala)-Tic-(NMe-Ser)-OH] (H-[dNMeY]F[NMeL][Thz][dS]Q[2Nal][dA][Tic][NMeS]-OH; N-terminus assumed) |

Target: T1, human Chemokine like receptor 1 (Homo sapiens, UniProt Q99788)
T1 construct: host or cells: U2OS (Tango CMKLR1-bla U2OS)
T1 sequence (Q99788 1-373): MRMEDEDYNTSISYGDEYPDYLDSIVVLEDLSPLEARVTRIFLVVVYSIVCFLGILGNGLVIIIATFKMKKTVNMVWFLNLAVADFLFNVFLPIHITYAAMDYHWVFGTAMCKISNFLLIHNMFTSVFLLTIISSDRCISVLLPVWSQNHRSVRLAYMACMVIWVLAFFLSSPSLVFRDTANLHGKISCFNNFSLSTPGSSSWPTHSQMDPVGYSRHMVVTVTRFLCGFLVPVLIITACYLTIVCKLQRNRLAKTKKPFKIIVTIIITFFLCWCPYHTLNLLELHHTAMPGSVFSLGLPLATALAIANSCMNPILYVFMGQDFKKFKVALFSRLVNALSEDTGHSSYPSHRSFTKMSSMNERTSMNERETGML
Experiment: Activation of Tango CMKLR1-bla U2OS cells (beta-lactamase FRET reporter)
Assay type: cell-based
Conditions: not given
Procedure, shortened: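 Agonist mode in Tango CMKLR1-bla U2OS cells, 10000 cells/well seeded overnight, then 10-point 3-fold compound dilutions from 10 mM DMSO stock applied for 4 h at 37 °C, 5% CO2. Beta-lactamase reporter read with CCF4-AM FRET substrate; peptide (D-Tyr)-Phe-Leu-Pro-(D-Ser)-Gln-Phe-(D-Ala)-Tic-Ser served as positive control.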

| SMILES | EC50 [nM] |
| --- | --- |
| CC(C)C[C@@H](C(=O)N1CCC[C@H]1C(=O)N[C@H](CO)C(=O)N[C@@H](CCC(N)=O)C(=O)N[C@@H](Cc1ccccc1)C(=O)N[C@H](C)C(=O)N1Cc2ccccc2C[C@H]1C(=O)N[C@@H](CO)C(=O)O)N(C)C(=O)[C@H](Cc1ccc2ccccc2c1)NC(=O)[C@H](N)Cc1ccc(O)cc1 [YW-200, (D-Tyr)-2Nal-(NMe-Leu)-Pro-(D-Ser)-Gln-Phe-(D-Ala)-Tic-Ser] (H-[dY][2Nal][NMeL]P[dS]QF[dA][Tic]S-OH) | 19 |

Same assay, conditions: determination by the method of Effect Embodiment 1; read-out: EC50

| EC50 [nM] | SMILES |
| --- | --- |
| 0.6 | CN[C@H](Cc1ccc(O)cc1)C(=O)N[C@@H](Cc1ccccc1)C(=O)N(C)[C@@H](CC(C)C)C(=O)N1CSC[C@H]1C(=O)N[C@H](CO)C(=O)N[C@@H](CCC(N)=O)C(=O)N[C@@H](Cc1ccc2ccccc2c1)C(=O)N[C@H](C)C(=O)N1Cc2ccccc2C[C@H]1C(=O)N(C)[C@@H](CO)C(=O)O [YW-125, (D-NMe-Tyr)-Phe-(NMe-Leu)-Thz-(D-Ser)-Gln-2Nal-(D-Ala)-Tic-(NMe-Ser)-OH] (H-[dNMeY]F[NMeL][Thz][dS]Q[2Nal][dA][Tic][NMeS]-OH; N-terminus assumed) |
| 9.1 | CC(C)C[C@H](NC(=O)[C@H](Cc1ccccc1)NC(=O)[C@@H](Cc1ccc(O)cc1)NC(=O)c1ccc(O)c(O)c1O)C(=O)N1CCC[C@H]1C(=O)N[C@H](CO)C(=O)N[C@@H](CCC(N)=O)C(=O)N[C@@H](Cc1ccccc1)C(=O)N[C@H](C)C(=O)N1Cc2ccccc2C[C@H]1C(=O)N[C@@H](CO)C(=O)O [YW-129, 2,3,4-Trihydroxybenzoyl-(D-Tyr)-Phe-Leu-Pro-(D-Ser)-Gln-Phe-(D-Ala)-Tic-Ser-OH] (X9-[dY]FLP[dS]QF[dA][Tic]S-OH) |
| 13 | CC(C)C[C@H](NC(=O)[C@H](Cc1ccccc1)NC(=O)[C@H](N)Cc1ccc(O)cc1)C(=O)N1CCC[C@H]1C(=O)N[C@H](CO)C(=O)N[C@@H](CCC(N)=O)C(=O)N[C@@H](Cc1ccccc1)C(=O)N[C@H](C)C(=O)N1Cc2ccccc2C[C@H]1C(=O)N(C)[C@@H](CO)C(=O)O [YW-110, (D-Tyr)-Phe-Leu-Pro-(D-Ser)-Gln-Phe-(D-Ala)-Tic-(NMe-Ser)-OH] (H-[dY]FLP[dS]QF[dA][Tic][NMeS]-OH) |
| 3.3 | CC(C)C[C@@H](C(=O)N1CC(F)(F)C[C@H]1C(=O)N[C@H](CO)C(=O)N[C@@H](CCC(N)=O)C(=O)N[C@@H](Cc1ccc2ccccc2c1)C(=O)N[C@H](C)C(=O)N1Cc2ccccc2C[C@H]1C(=O)N(C)[C@@H](CO)C(=O)O)N(C)C(=O)[C@H](Cc1ccccc1)NC(=O)[C@H](N)Cc1ccc(O)c(F)c1 [YW-226, (D-Tyr(3F))-Phe-(NMe-Leu)-(DiFluorPro)-(D-Ser)-Gln-(Nal-2)-(D-Ala)-Tic-(NMe-Ser)] (H-[dTyr(3-F)]F[NMeL][Pro(4,4-F2)][dS]Q[2Nal][dA][Tic][NMeS]-OH) |
| 1.2 | CC(C)C[C@@H](C(=O)N1CCC[C@H]1C(=O)N[C@H](CO)C(=O)N[C@@H](CCC(N)=O)C(=O)N[C@@H](Cc1ccccc1)C(=O)N[C@H](C)C(=O)N1Cc2ccccc2C[C@H]1C(=O)N[C@@H](CO)C(=O)O)N(C)C(=O)[C@H](Cc1ccccc1)NC(=O)[C@@H](Cc1ccc(O)cc1)NC(=O)CC1CCCCC1 [YW-194, (2-Cyclohexylacetyl)-(D-Tyr)-Phe-(NMe-Leu)-Pro-(D-Ser)-Gln-Phe-(D-Ala)-Tic-Ser] (Cyclohexylacetyl-[dY]F[NMeL]P[dS]QF[dA][Tic]S-OH) |
| 1.4 | CCCCCCCCCCCCCC(=O)NCCOCCOCCOCCOCCOCCOCCOCCOCCC(=O)NCCC(=O)NCCC(=O)N(C)[C@H](Cc1ccc(O)cc1)C(=O)N[C@@H](Cc1ccccc1)C(=O)N(C)[C@@H](CC(C)C)C(=O)N1CCC[C@H]1C(=O)N[C@H](CO)C(=O)N[C@@H](CCC(N)=O)C(=O)N[C@@H](Cc1ccc2ccccc2c1)C(=O)N[C@H](C)C(=O)N1Cc2ccccc2C[C@H]1C(=O)N(C)[C@@H](CO)C(=O)O [YW-180, Tetradecanoyl-PEG8-βAla-βAla-(D-NMe-Tyr)-Phe-(NMe-Leu)-Pro-(D-Ser)-Gln-2Nal-(D-Ala)-Tic-(NMe-Ser)] ({Myristoyl-PEG8-βAla-βAla}-[dNMeY]F[NMeL]P[dS]Q[2Nal][dA][Tic][NMeS]-OH) |
| 0.9 | CN[C@H](Cc1ccc(O)cc1)C(=O)N[C@@H](Cc1ccccc1)C(=O)N(C)[C@@H](CC(C)C)C(=O)N1CSC[C@H]1C(=O)N[C@H](CO)C(=O)N[C@@H](CCC(N)=O)C(=O)N[C@@H](Cc1cccc2ccccc12)C(=O)N[C@H](C)C(=O)N1Cc2ccccc2C[C@H]1C(=O)N(C)[C@@H](CO)C(=O)O [YW-142, (D-NMe-Tyr)-Phe-(NMe-Leu)-Thz-(D-Ser)-Gln-1Nal-(D-Ala)-Tic-(NMe-Ser)-OH] (H-[dNMeY]F[NMeL][Thz][dS]Q[1Nal][dA][Tic][NMeS]-OH; N-terminus assumed) |
| 65 | CC(C)C[C@H](NC(=O)[C@H](Cc1ccccc1)NC(=O)[C@H](N)Cc1ccc(O)cc1)C(=O)N1CCC[C@H]1C(=O)N[C@H](CO)C(=O)N[C@@H](CCC(N)=O)C(=O)N[C@@H](Cc1ccccc1)C(=O)N[C@H](C)C(=O)N1Cc2sccc2C[C@H]1C(=O)N[C@@H](CO)C(=O)O [YW-158, (D-Tyr)-Phe-Leu-Pro-(D-Ser)-Gln-Phe-(D-Ala)-TP5C-Ser-OH] (H-[dY]FLP[dS]QF[dA][X4]S-OH; N-terminus assumed) |
| > 50000 | CC(C)C[C@H](NC(=O)[C@H](Cc1ccccc1)NC(=O)[C@H](N)Cc1ccc(O)cc1)C(=O)N1CCC[C@H]1C(=O)N[C@H](CO)C(=O)N(CCC(N)=O)CC(=O)N[C@@H](Cc1ccccc1)C(=O)N[C@H](C)C(=O)N1Cc2ccccc2C[C@H]1C(=O)N[C@@H](CO)C(=O)O [YW-108, (D-Tyr)-Phe-Leu-Pro-(D-Ser)-NGln-Phe-(D-Ala)-Tic-Ser-OH] (H-[dY]FLP[dS][Gly(Nα-CH2CH2CONH2)]F[dA][Tic]S-OH) |
| > 50000 | CC(C)C[C@H](NC(=O)[C@H](Cc1ccccc1)NC(=O)[C@H](N)Cc1ccc(O)cc1)C(=O)N1CCC[C@H]1C(=O)N[C@H](CO)C(=O)N[C@@H](CCC(N)=O)C(=O)N[C@@H](Cc1ccccc1)C(=O)N[C@H](C)C(=O)N1CCCC[C@H]1C(=O)N[C@@H](CO)C(=O)O [YW-90, (D-Tyr)-Phe-Leu-Pro-(D-Ser)-Gln-Phe-(D-Ala)-HoPro-Ser-OH] (H-[dY]FLP[dS]QF[dA][Pip]S-OH) |
